{"source": "paper PMC7613620", "about": "“Reaction hijacking of tyrosine tRNA synthetase as a whole-of-life-cycle antimalarial strategy” (Science (New York, N.Y.), 2022)", "key": {"[1]": {"tested_on": "P. falciparum (3D7)", "assay": "P. falciparum (3D7) culture growth inhibition, 72 h", "type": "cell-based, Plasmodium falciparum", "conditions": "for IC50: Plasmodium falciparum", "protocol": "(1 picture or pasted object on this page, not shown here)\n553 Sigma-Aldrich) for 48-72 h. For drug pulse assays, tightly synchronized parasites (1-1.5% parasitemia,\n554 0.2% final hematocrit) were added to the plates and incubated for 3 h. Drugs were removed and the\n555 parasitemia assessed in the trophozoite stage of the next cycle.\n557 Compounds were tested against a range of drug resistant field isolates and laboratory strains using a\n558 modified [3H]-hypoxanthine incorporation assay, as previously reported (46). Field isolates 7G8, Cam3.1,\n559 Dd2, K1, TM90C2B and NF54 were obtained from MR4 (www.beiresources.org).\n561 Mammalian cell culture experiments\n562 The HepG2 (Human hepatocyte carcinoma) cell line was procured from ATCC (American Type\n563 Culture Collection, Manassas, USA; HB-8065) and viability assessed using Cell Titer-GLO luminescent\n564 cell viability assay reagents (Promega, catalogue number: G7570) (47, 48). For the assay, 2000 cells/well\n565 were plated in 384-well plates 24 h prior to the experiment and incubated at 37°C in a CO2 incubator. The\n566 medium was removed and cells were treated with fresh medium containing either vehicle (0.5% DMSO)\n567 or serially diluted test compounds or doxorubicin (1.3 nM to 25 µM) in a final volume of 50 µl/well and\n568 further incubated for 72 h at 37°C in a CO2 incubator.\n569 were treated with 5 µl of 1% Triton X-100 (final assay conc. 0.1%). Following incubation, 25 µl of medium\n570 was discarded and 25 µl of Cell Titer-GLO reagent was added to each well and the plate was kept on a plate\n571 shaker for 15 min at 25°C with shaking at 300 rpm. Luminescence signals were measured in a Spectramax\n572 M5 reader (Molecular Devices).\n(§1) 574 H1650 is a human lung cancer derived ATG7-null cell line (49) that can be used to assess effects on targets\n(§2) 576 adenocarcinoma; bronchoalveolar carcinoma). Other cells lines used are: H460 (NCI-H460; human lung;\n(§3) 577 carcinoma; large cell lung cancer; ATCC: HTB-177); and HCT116 (human colon; colorectal carcinoma;\n(§4) 578 ATCC: CCL-247; Lot : 5056139). Each of the cell lines was received from the American Type Culture\n(§5) 579 Collection (ATCC) and passaged twice before freezing. Cells were cultured in the presence or absence of\n(§6) 580 inhibitors and cell viability was assessed by comparing the ATP content in compound-treated wells with\n581 that in DMSO-treated wells as previously described (11).\n583 HeLa cells (human cervical adenocarcinoma; genome sequenced (Garvin Institute, Australia) and verified"}, "[2]": {"tested_on": "H460", "assay": "H460 cell viability (ATP content)", "type": "cell-based", "conditions": "Homo sapiens, NCI-H460, 72 h, read-out: H460 IC50(72h)", "protocol": "as §1, §2, §3, §4, §5, §6\n(§7) 581 that in DMSO-treated wells as previously described (11). […]\n(§8) 585 37°C humidified incubator as adherent semi-confluent monolayers in complete Dulbecco’s Modified Eagle\n(§9) 586 Media (c-DMEM). DMEM (Gibco™, Thermo Fisher Scientific, Australia) was supplemented with 10%"}, "[3]": {"tested_on": "HCT116", "assay": "HCT116 cell viability (ATP content)", "type": "cell-based", "conditions": "Homo sapiens, HCT-116, 72 h, read-out: HCT116 IC50(72h)", "protocol": "as §1, §2, §3, §4, §5, §6, §7, §8, §9"}, "[4]": {"tested_on": "P. falciparum female gametes", "assay": "Dual gamete formation assay (female)", "type": "cell-based", "conditions": "Plasmodium falciparum", "protocol": "604 Activity against transmissible stages of P. falciparum\n605 Activity against male gametes was assessed using the dual gamete formation assay (PfDGFA)(32).\n606 Compounds were incubated with mature stage V gametocytes ([…], kind gift from Professor Chris Janse\n607 at Leiden University Medical Center (LUMC), the Netherlands) for 48 hours in 384 well plates before\n608 gamete formation was triggered by a drop in temperature and addition of xanthurenic acid. Male gamete\n609 exflagellation was recorded and quantified by automated microscopy. The ability of female gametes to\n611 Multiple data sets using different gametocyte cultures were collected on each of two separate days.\n613 Activity against exoerythrocytic stages\n614 Primary human hepatocytes (H1500.H15B+ Lot No. HC10-10 Cryopreserved human hepatocytes)\n615 were cultured for 2 days and then overlaid with P. falciparum NF54 sporozoites and compounds.\n616 Supernatant was refreshed daily with fresh compounds."}, "[5]": {"tested_on": "P. falciparum NF54 liver stage parasites", "assay": "P. falciparum NF54 schizont development in primary human hepatocytes", "type": "cell-based", "conditions": "Plasmodium falciparum, NF54, Hepatocyte, 96 h"}, "[6]": {"target": "PfYRS (Plasmodium falciparum, UniProt Q8IAR7)", "sequence (Q8IAR7 entry or part of it)": "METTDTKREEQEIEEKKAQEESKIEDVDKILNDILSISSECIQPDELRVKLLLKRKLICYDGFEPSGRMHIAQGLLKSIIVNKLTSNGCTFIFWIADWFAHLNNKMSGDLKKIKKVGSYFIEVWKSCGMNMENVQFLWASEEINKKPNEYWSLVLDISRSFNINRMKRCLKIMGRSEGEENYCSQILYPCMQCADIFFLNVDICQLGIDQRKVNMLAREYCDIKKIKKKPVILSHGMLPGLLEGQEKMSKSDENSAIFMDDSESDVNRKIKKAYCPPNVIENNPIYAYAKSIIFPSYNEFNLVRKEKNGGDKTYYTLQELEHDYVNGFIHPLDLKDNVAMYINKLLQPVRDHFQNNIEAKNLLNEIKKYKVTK", "assay": "Tyrosine acylation of cognate tRNATyr by PfYRS", "type": "biochemical"}}, "note": "Like-named read-outs stand apart in the source and are kept apart here."}
{"smiles": "Nc1ncnc2c1c(OC(F)F)nn2[C@@H]1O[C@H](COS(N)(=O)=O)[C@@H](O)[C@H]1O", "note": "[ML901]", "values": [{"measurement": "higher selectivity than AMS", "setting": "[1]; P. falciparum versus mammalian cell lines, compared with AMS", "value": "> 1,000 fold"}, {"measurement": "IC50", "setting": "[1]; read-out: Pf3D7 IC50(72h), P. falciparum 3D7, 72 h", "value": "2 ± 0.1", "unit": "nM"}, {"measurement": "IC50", "setting": "[1]; 3D7 parent of the in vitro evolution experiment, 72 h, read-out: IC50 (3D7)", "value": "1.9 ± 0.1", "unit": "nM"}, {"measurement": "selectivity towards P. falciparum", "setting": "[1]; versus different mammalian cell lines", "value": "800- to 5,000 fold"}, {"measurement": "IC50", "setting": "[2]", "value": 4650, "unit": "nM"}, {"measurement": "IC50", "setting": "[3]", "value": 2280, "unit": "nM"}, {"measurement": "IC50", "setting": "[4]; 48 h incubation with stage V gametocytes", "value": "4700 ± 300", "unit": "nM"}, {"measurement": "inhibition at 25 µM", "setting": "[4]; at 25 µM", "value": 81, "unit": "%"}, {"measurement": "IC50", "setting": "[5]", "value": "13 ± 5", "unit": "nM"}, {"measurement": "IC50", "setting": "[6]", "value": 53000, "unit": "nM"}]}
